# Reference: patent US20040077634A1, “Treatment of diseases characterized by excessive or insufficient cell death” (priority 2001, published 2004)
# Residues, ends and D or L forms follow the SMILES beside them. *: point of attachment. Cbz = O=C(OCc1ccccc1)*; CH2F = FC*
# What was measured:
# [1] = system: MCF-casp3 cells; test: TNF-induced cell death of MCF-casp3 cells
# Procedure: (§1) The ability of compound f to inhibit cell death was examined in MCF-neo and MCF-casp3 cells. […] To analyse the mechanism of the action of compound f in alive cells, MCF-casp3 cells were treated with TNF (5 ng/ml) in the presence of 50 μM compound f and the activity of caspase-3-like proteases was measured by a DEVDase enzyme assay.
# [2] = system: MCF-neo cells; test: TNF-induced cell death of MCF-neo cells; type: cell-based
# Procedure: as §1
# [3] = biological target: T1, recombinant caspase-9 (Homo sapiens, UniProt P55211); test: Recombinant caspase-9 activity, cleavage of LEHD-AFC; type: biochemical
# T1 sequence (P55211 1-315 limits assumed): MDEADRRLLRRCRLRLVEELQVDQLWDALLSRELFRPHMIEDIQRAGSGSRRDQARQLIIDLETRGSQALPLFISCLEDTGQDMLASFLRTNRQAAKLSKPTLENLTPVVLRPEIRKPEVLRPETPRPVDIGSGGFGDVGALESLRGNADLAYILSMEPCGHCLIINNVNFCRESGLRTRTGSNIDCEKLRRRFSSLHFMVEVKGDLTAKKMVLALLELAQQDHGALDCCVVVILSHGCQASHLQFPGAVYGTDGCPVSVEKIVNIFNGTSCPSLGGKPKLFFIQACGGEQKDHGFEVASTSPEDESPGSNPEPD
# T1 sequence (P55211 331-416 limits assumed): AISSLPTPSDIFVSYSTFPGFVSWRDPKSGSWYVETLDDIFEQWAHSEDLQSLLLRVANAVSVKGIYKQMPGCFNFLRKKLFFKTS
# Procedure: The inhibition of the DEVDase activity in the in vitro caspase activation system could be due to a direct inhibition of caspase-9, -3, or -7 activities, or to the inhibition of the apoptosome formation. To test if compounds a, f, and g were specific caspase inhibitors, recombinant caspase-3 and caspase-9 were incubated with the three compounds and the enzymatic activities of caspases were monitored by analysing the cleavage of the caspase-3 substrate DEVD-AFC or the caspase-9 substrate LEHD-AFC, respectively.
# [4] = biological target: T2, recombinant caspase-3 (Homo sapiens, UniProt P42574); test: Recombinant caspase-3 activity, cleavage of DEVD-AFC; type: biochemical
# T2 sequence (P42574 29-175 limits assumed): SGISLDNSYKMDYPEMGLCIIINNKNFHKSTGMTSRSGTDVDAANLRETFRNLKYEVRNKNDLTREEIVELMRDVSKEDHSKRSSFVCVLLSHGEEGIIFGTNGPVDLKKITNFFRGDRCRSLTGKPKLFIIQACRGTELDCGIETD
# T2 sequence (P42574 176-277 limits assumed): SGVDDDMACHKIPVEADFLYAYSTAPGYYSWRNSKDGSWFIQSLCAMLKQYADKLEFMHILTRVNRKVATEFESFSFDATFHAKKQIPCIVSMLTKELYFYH
# Procedure: To test if compounds a, f, and g were specific caspase inhibitors, recombinant caspase-3 and caspase-9 were incubated with the three compounds and the enzymatic activities of caspases were monitored by analysing the cleavage of the caspase-3 substrate DEVD-AFC or the caspase-9 substrate LEHD-AFC, respectively.
# [5] = system: DEVDase (caspase-3-like protease); test: Inhibition of DEVDase in cytochrome c/dATP-activated Hela cytosolic extract (method 1); type: biochemical; conditions: compound final concentration 100 μM; 1 mM dATP and 1 μM cytochrome c; DEVD-AFC
# Procedure: Hela cells are grown in large petri dishes until subconfluency. Cells are then harvested and washed in PBS. The cell pellet is resuspended in equal volumes of ice-cold isotonic lysisbuffer (SCA; 20 mM Hepes-KOH pH 7.5, 10 mM KCl, 1.5 mM MgCl2, 1 mM EDTA, 1 mM EGTA, 250 mM sucrose, 1 mM DTT, 10 μg/ml aprotinin, 1 μg/ml leupeptin, 1 μg/ml pepstatin A, 100 μg/ml peta-block), incubated on ice for 30 min and lysed by approx. 30 strokes of a dounce homogenizer. The lysate is then centrifuged at 750 g for 10 min, and the supernatant thereof at 10,000 g for 10 min and at 20,000 g for 30 min. The clarified supernatant is removed carefully and stored in aliquots at −80° C. Activation of endogene caspases is induced by addition of 1 mM dATP and 1 μM horse heart cytochrome c to cytosolic extract (protein concentration; 5-10 mg/ml) in the presence of DEVD-AFC and the compound (final concentration 100 μM). Activated DEVD'ases (AFC release) is measured by fluorometry in 96-well plates at 37° C. After end measurements 2× LSB-Mechaptoethanol are added to the samples for assessment of caspase processing by immunoblot analysis. Percent inhibition is calculated as follows: [formula]
# [6] = system: caspase-9, caspase-3 and caspase-7 processing; DFF45/ICAD and PARP cleavage; test: Processing of caspases and caspase substrates in Cc/dATP-stimulated cell extract, Western blotting; type: biochemical; conditions: cell extracts stimulated with Cc/dATP; Western blot; dose dependence
# Procedure: Activation of endogene caspases is induced by addition of 1 mM dATP and 1 μM horse heart cytochrome c to cytosolic extract (protein concentration; 5-10 mg/ml) in the presence of DEVD-AFC and the compound (final concentration 100 μM). Activated DEVD'ases (AFC release) is measured by fluorometry in 96-well plates at 37° C. After end measurements 2× LSB-Mechaptoethanol are added to the samples for assessment of caspase processing by immunoblot analysis.
# Next, the effect of the compounds on the processing of caspases and caspase substrates in the in vitro model system was analysed by Western blotting. Caspase-9, caspase-3 and caspase-7 were processed into p35, p17, and p20 active fragments, respectively, in response to Cc/dATP. Accordingly, Cc/dATP induced a threefold induction in DEVDase activity and cleavage of the caspase-3 substrates DFF45/ICAD and PARP.
# [7] = biological target: T3, apoptosome complex (Apaf-1 and caspase-9) (Homo sapiens, UniProt O14727+P55211); test: Apoptosome formation: co-immunoprecipitation of Apaf-1 with caspase-9 in cell extract; type: binding; conditions: 1 μM zVAD-fmk, 1 hour with Cc/dATP prior to IP
# T3 construct: Caspase-9 antibody precipitated practically all caspase-9 present in the cell extract; endogenous in cells; host or cells: cell extract
# T3 sequence (O14727 1-1248): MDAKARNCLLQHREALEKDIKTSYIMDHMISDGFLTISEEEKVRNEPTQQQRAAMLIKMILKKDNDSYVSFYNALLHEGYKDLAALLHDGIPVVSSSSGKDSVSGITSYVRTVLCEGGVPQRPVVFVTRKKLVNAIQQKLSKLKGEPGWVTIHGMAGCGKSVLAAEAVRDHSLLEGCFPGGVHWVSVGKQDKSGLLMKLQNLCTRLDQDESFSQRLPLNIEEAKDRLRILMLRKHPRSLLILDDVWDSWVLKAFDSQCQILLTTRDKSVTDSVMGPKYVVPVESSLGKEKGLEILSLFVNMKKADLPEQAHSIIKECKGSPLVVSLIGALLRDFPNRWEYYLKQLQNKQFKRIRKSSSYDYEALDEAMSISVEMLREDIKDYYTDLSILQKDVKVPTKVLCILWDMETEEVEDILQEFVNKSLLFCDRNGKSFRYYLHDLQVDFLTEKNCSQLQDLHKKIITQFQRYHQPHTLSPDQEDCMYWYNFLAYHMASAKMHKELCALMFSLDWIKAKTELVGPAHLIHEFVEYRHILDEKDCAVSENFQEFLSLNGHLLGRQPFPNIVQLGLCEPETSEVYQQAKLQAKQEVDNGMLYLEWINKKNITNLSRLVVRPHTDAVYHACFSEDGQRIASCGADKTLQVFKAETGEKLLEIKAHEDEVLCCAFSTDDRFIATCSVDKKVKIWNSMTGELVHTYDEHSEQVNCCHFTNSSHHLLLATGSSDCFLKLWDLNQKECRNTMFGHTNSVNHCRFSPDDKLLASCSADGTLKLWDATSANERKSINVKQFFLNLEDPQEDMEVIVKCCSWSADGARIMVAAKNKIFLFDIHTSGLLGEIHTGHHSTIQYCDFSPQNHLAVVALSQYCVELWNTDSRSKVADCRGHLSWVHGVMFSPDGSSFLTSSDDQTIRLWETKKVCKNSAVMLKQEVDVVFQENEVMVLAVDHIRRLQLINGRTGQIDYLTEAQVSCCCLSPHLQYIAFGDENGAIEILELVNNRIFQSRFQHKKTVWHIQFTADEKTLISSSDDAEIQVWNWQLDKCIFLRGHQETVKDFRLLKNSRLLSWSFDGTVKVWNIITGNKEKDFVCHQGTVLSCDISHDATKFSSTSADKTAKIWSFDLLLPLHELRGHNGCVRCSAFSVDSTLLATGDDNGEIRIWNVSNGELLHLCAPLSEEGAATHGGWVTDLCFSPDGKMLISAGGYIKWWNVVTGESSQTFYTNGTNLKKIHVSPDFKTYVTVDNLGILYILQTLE
# T3 sequence (P55211 1-416): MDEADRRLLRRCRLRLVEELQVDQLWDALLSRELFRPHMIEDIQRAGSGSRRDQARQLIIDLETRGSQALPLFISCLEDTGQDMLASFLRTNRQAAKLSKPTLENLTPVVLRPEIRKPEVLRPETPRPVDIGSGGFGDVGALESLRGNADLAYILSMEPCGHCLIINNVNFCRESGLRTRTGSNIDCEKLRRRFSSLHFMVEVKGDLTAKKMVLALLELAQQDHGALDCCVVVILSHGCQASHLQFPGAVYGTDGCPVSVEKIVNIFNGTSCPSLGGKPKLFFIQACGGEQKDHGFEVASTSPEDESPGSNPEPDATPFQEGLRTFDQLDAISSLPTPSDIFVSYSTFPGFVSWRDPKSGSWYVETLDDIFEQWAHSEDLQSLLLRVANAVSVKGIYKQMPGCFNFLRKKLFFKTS
# Procedure: Next, it was tested whether compound f interferes with the formation of apoptosome complex in response to Cc/dATP. Cell extracts were incubated with Cc/dATP in the presence or absence of 100 μM compound f or 1 μM zVAD-fmk for 1 hour prior to the immunoprecipitation (IP) of caspase-9. […] Hsp90, which has been proposed to associate with Apaf-1 and prevent oligomerization and caspase-9 recruitment, was not co-immunoprecipitated with caspase-9.
# [8] = 25 to 100 μM, LEHD-AFC substrate
# [9] = 25 to 100 μM, DEVD-AFC substrate
smiles,measurement,setting,value
"CC(=O)N[C@@H](CC(=O)O)C(=O)N[C@@H](CCC(=O)O)C(=O)N[C@H](C(=O)N[C@H](C=O)CC(=O)O)C(C)C [DEVD-CHO, reference compound]",cell death induced by TNF,"[1]; 1 ng/ml TNF, 200 μM DEVD-CHO",blocked
same,protection against TNF,"[1]; 5 ng/ml TNF, 200 μM DEVD-CHO",significant protection
same,cell death induced by TNF,"[2]; 1 ng/ml TNF, 200 μM DEVD-CHO",blocked
same,protection against TNF,"[2]; 5 ng/ml TNF, 200 μM DEVD-CHO",significant protection
same,inhibition of recombinant caspase-9 activity,[3]; 0.1 μM DEVD-CHO,almost total inhibition
"COC(=O)c1cc(NC(=O)Nc2cccc(C(F)(F)F)c2)c(O)cc1[N+](=O)[O-] [a, [N-(2-Hydroxy-5-methoxycarbonyl-4-nitrophenyl)-N′-(3-trifluoromethylphenyl)]urea]",inhibition of recombinant caspase-9 activity,[3]; [8],failed to inhibit
same,inhibition of recombinant caspase-3 activity,[4]; [9],failed to inhibit
same,% Inhibition,[5],80%
same,"inhibition of caspase-9, -3 and -7 processing and DFF45/ICAD and PARP cleavage",[6],dose-dependent inhibition
"CN1[C@H]2CC[C@@H]1[C@@H](c1nc(-c3cccs3)no1)[C@@H](c1ccc3ccccc3c1)C2.Cl [c, (1R,2S,3S)-2-[3-(2-Thienyl)-1,2,4-oxadiazol-5-yl]-3-(2-naphthyl)-tropane hydrochloric acid salt]",melting point,,149 to 150 °C
same,% Inhibition,[5],60%
"c1ccc(-c2cccc(-n3cnc4ccccc43)c2)cc1 [d, 1-(3-Biphenyl)-benzimidazole]",% Inhibition,[5],58%
"O=c1onc2cnc3cc([N+](=O)[O-])ccc3n12 [e, 7-Nitro-1,2,4-oxadiazolo[3,4-d]benz[b]-1,4-diazin-1-one]",% Inhibition,[5],63%
"O=C(Nc1cccc(C(F)(F)F)c1)Nc1ccc(O)cc1O [g, [N-(2,4-Dihydroxyphenyl)-N′-(3-trifluoromethylphenyl)]urea]",inhibition of recombinant caspase-9 activity,[3]; [8],failed to inhibit
same,inhibition of recombinant caspase-3 activity,[4]; [9],failed to inhibit
same,% Inhibition,[5],74%
same,"inhibition of caspase-9, -3 and -7 processing and DFF45/ICAD and PARP cleavage",[6],dose-dependent inhibition
"COC(=O)C[C@H](NC(=O)[C@H](C)NC(=O)[C@@H](NC(=O)OCc1ccccc1)C(C)C)C(=O)CF [zVAD-fmk, reference compound] (Cbz-Val-Ala-Asp(OMe)-CH2F)",TNF-induced death,[1]; 50 μM zVAD-fmk,blocked completely
same,TNF-induced death,[2]; 50 μM zVAD-fmk,blocked completely
same,inhibition of recombinant caspase-9 activity,[3]; 1 μM zVAD-fmk,almost total inhibition
same,inhibition of recombinant caspase-3 activity,[4]; 1 μM zVAD-fmk,almost total inhibition
same,co-immunoprecipitation of Apaf-1 with caspase-9,[7],efficiently co-immunoprecipitated
